According to patent US10471046B2, “Method for treating, preventing, or reducing the risk of skin infection” (Melinta Subsidiary Corp., priority 2014, dated 2019):
Converted amounts (≈) assume the structure as drawn. Counter-ions that a name gives are not always drawn. One block for each compound: values may come before it.

Tests used:
S. aureus = assay: Minimum inhibitory concentrations (MICs) for S. aureus of exemplary compounds (Table 2); type: cell-based; settings: Staphylococcus aureus, minimum inhibitory concentrations for S. aureus; read-out: MICs
Outline: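 MICs (μg/mL) against S. aureus come from microtiter-tray dilution susceptibility testing per NCCLS M7-A5, comparing growth with and without compound.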

[1] = Solubility of salts in water by HPLC; type: physicochemical; settings: for Solubility at Native pH / Solubility at Adjusted pH: radezolid salts in water by HPLC at 23° C.; for Solubility at Adjusted pH: pH adjusted to ~3.5; for Native pH: supernatant of saturated salt solution in water
Description: In another set of experiments, solubility of various radezolid salts was determined by HPLC. Approximately 1 mL of saturated solution (with excess of solid in solution) of each salt was prepared in water. The mixture was further mixed overnight on a slurry wheel then centrifuged on a desktop centrifuge at maximum speed for ˜5 min. The supernatant was collected, and pH was measured. Solubility was determined at the native pH. Then the pH was adjusted to ˜3.5 with sodium hydroxide solution or an acid solution in which salt was generated. The supernatant was filtered through a 0.2 μm nylon syringe filter and diluted into 0.1% formic acid solution immediately after filtration for HPLC. All HPLC analyses were performed using an Agilent 1100 series liquid chromatograph equipped with a diode array detector, degasser, quaternary pump, and an autosampler. […] The column temperature was set to 30° C., and the detector wavelength was 270 nm with a bandwidth of 8 nm and a reference wavelength of 360 nm. The mobile phase A was 0.1% formic acid in water (HPLC grade), mobile phase B was 0.1% formic acid in methanol (HPLC grade). […] The injection volume was 5 μl.

[2] = Dynamic vapor sorption/desorption (DVS); type: physicochemical; settings: radezolid salts
Description: Dynamic vapor sorption/desorption (DVS) data were collected on a VTI SGA-100 Vapor Sorption Analyzer. Sorption and desorption data were collected over a range of 5% to 95% relative humidity (RH) at 10% RH intervals under a nitrogen purge. Samples were not dried prior to analysis. Equilibrium criteria used for analysis were less than 0.0100% weight change in 5 minutes, with a maximum equilibration time of 3 hours if the weight criterion was not met. Data were not corrected for the initial moisture content of the samples. Sodium chloride and polyvinylpyrrolidine (PVP) were used as calibration standards.

MIC (S. aureus): 0.25 µg/mL (≈ 0.501 µM)
Structure (SMILES): CC(=O)NC[C@H]1CN(c2ccc(-c3ccc(CNCCCSc4cnn[nH]4)cc3)c(F)c2)C(=O)O1 [Compound 5002, N-[3-(2-Fluoro-4′-{[3-(3H-[1,2,3]triazol-4-ylsulfanyl)-propylamino]-methyl}-biphenyl-4-yl)-2-oxo-oxazolidin-5-(S)-ylmethyl]-acetamide]

MIC (S. aureus): 1 µg/mL (≈ 1.99 µM)
Structure (SMILES): CC(=O)NC[C@H]1CN(c2ccc(-c3ccc(CNCCSc4nncs4)cc3)c(F)c2)C(=O)O1 [Compound 5003, N-[3-(2-Fluoro-4′-{[2-([1,3,4]thiadiazol-2-ylsulfanyl)-ethylamino]-methyl}-biphenyl-4-yl)-2-oxo-oxazolidin-5-(S)-ylmethyl]-acetamide]

MIC (S. aureus): 1 µg/mL (≈ 2.02 µM)
Structure (SMILES): CC(=O)NC[C@H]1CN(c2ccc(-c3ccc(CNCCSc4ccccn4)cc3)c(F)c2)C(=O)O1 [Compound 5004, N-[3-(2-Fluoro-4′-{[2-(pyridin-2-ylsulfanyl)-ethylamino]-methyl}-biphenyl-4-yl)-2-oxo-oxazolidin-5-(S)-ylmethyl]-acetamide]

MIC (S. aureus): 0.5 µg/mL (≈ 1.03 µM)
Structure (SMILES): CC(=O)NC[C@H]1CN(c2ccc(-c3ccc(CNCCSc4nnc[nH]4)cc3)c(F)c2)C(=O)O1 [Compound 5005, N-[3-(2-Fluoro-4′-{[2-(4H-[1,2,4]triazol-3-ylsulfanyl)-ethylamino]-methyl}-biphenyl-4-yl)-2-oxo-oxazolidin-5-(S)-ylmethyl]-acetamide]

MIC (S. aureus): 1 µg/mL (≈ 2 µM)
Structure (SMILES): CC(=O)NC[C@H]1CN(c2ccc(-c3ccc(CNCCSc4nccs4)cc3)c(F)c2)C(=O)O1 [Compound 5006, N-[3-(2-Fluoro-4′-{[2-(thiazol-2-ylsulfanyl)-ethylamino]-methyl}-biphenyl-4-yl)-2-oxo-oxazolidin-5-(S)-ylmethyl]-acetamide]

MIC (S. aureus): 0.25 µg/mL (≈ 0.506 µM)
Structure (SMILES): O=C1O[C@@H](Cn2ccnn2)CN1c1ccc(-c2ccc(CNCCSc3cnn[nH]3)cc2)c(F)c1 [Compound 5007, 3-(2-Fluoro-4′-{[2-(3H-[1,2,3]triazol-4-ylsulfanyl)-ethylamino]-methyl}-biphenyl-4-yl)-5-(R)-[1,2,3]triazol-1-ylmethyl-oxazolidin-2-one]

MIC (S. aureus): 2 µg/mL (≈ 4.14 µM)
Structure (SMILES): CC(=O)NC[C@H]1CN(c2ccc(-c3ccc(CNCCSc4ncc[nH]4)cc3)c(F)c2)C(=O)O1 [Compound 5008, N-[3-(2-Fluoro-4′-{[2-(1H-imidazol-2-ylsulfanyl)-ethylamino]-methyl}-biphenyl-4-yl)-2-oxo-oxazolidin-5-(S)-ylmethyl]-acetamide]

MIC (S. aureus): 1 µg/mL (≈ 2.02 µM)
Structure (SMILES): CC(=O)NC[C@H]1CN(c2ccc(-c3ccc(CNCCSc4ncccn4)cc3)c(F)c2)C(=O)O1 [Compound 5009, N-[3-(2-Fluoro-4′-{[2-(pyrimidin-2-ylsulfanyl)-ethylamino]-methyl}-biphenyl-4-yl)-2-oxo-oxazolidin-5-(S)-ylmethyl]-acetamide]

MIC (S. aureus): 4 µg/mL (≈ 7.2 µM)
Structure (SMILES): CCOC(=O)c1c[nH]c(SCCNCc2ccc(-c3ccc(N4C[C@H](CNC(C)=O)OC4=O)cc3F)cc2)n1 [Compound 5010, 2-[2-({4′-[5-(S)-(Acetylamino-methyl)-2-oxo-oxazolidin-3-yl]-2′-fluoro-biphenyl-4-ylmethyl}-amino)-ethylsulfanyl]-1H-imidazole-4-carboxylic acid ethyl ester]

MIC (S. aureus): 4 µg/mL (≈ 7.77 µM)
Structure (SMILES): CC(=O)NC[C@H]1CN(c2ccc(-c3ccc(CNC[C@H](O)CSc4nnc[nH]4)cc3)c(F)c2)C(=O)O1 [Compound 5011]

MIC (S. aureus): 2 µg/mL (≈ 4.19 µM)
Structure (SMILES): CC(=O)NC[C@H]1CN(c2ccc(-c3ccc(CNC(=O)Nc4ccncc4)cc3)c(F)c2)C(=O)O1 [Compound 5012, N-(3-{2-Fluoro-4′-[(3-pyridin-4-yl-ureido)-methyl]-biphenyl-4-yl}-2-oxo-oxazolidin-5-(S)-ylmethyl)-acetamide]

MIC (S. aureus): 32 µg/mL (≈ 64.7 µM)
Structure (SMILES): CC(=O)NC[C@H]1CN(c2ccc(-c3ccc(CNC(=O)Nc4cccc(F)c4)cc3)c(F)c2)C(=O)O1 [Compound 5013, N-(3-{2-Fluoro-4′-[3-(3-fluoro-phenyl)-ureidomethyl]-biphenyl-4-yl}-2-oxo-oxazolidin-5-(S)-ylmethyl)-acetamide]

MIC (S. aureus): 16 µg/mL (≈ 28.6 µM)
Structure (SMILES): CC(=O)NC[C@H]1CN(c2ccc(-c3ccc(CNC(=O)COc4ccc(Cl)cc4Cl)cc3)c(F)c2)C(=O)O1 [Compound 5014, N-{4′-[5-(S)-(Acetylamino-methyl)-2-oxo-oxazolidin-3-yl]-2′-fluoro-biphenyl-4-ylmethyl}-2-(2,4-dichloro-phenoxy)-acetamide]

MIC (S. aureus): 4 µg/mL (≈ 6.73 µM)
Structure (SMILES): CC(=O)NC[C@H]1CN(c2ccc(-c3ccc(CNCCCNc4ncc(C(F)(F)F)cc4Cl)cc3)c(F)c2)C(=O)O1 [Compound 5015, N-[3-(4′-{[3-(3-Chloro-5-trifluoromethyl-pyridin-2-ylamino)-propylamino]-methyl}-2-fluoro-biphenyl-4-yl)-2-oxo-oxazolidin-5-(S)-ylmethyl]-acetamide]

MIC (S. aureus): 16 µg/mL (≈ 32.4 µM)
Structure (SMILES): CC(=O)NC[C@H]1CN(c2ccc(-c3ccc(NC(=O)NCCCn4ccnc4)cc3)c(F)c2)C(=O)O1 [Compound 6001, N-(3-{2-Fluoro-4′-[3-(3-imidazol-1-yl-propyl)-ureido]-biphenyl-4-yl}-2-oxo-oxazolidin-5-(S)-ylmethyl)-acetamide]

MIC (S. aureus): 2 µg/mL (≈ 4.07 µM)
Structure (SMILES): CC(=O)NC[C@H]1CN(c2ccc(-c3ccc(NC(=O)NCCc4ccccn4)cc3)c(F)c2)C(=O)O1 [Compound 6003, N-(3-{2-Fluoro-4′-[3-(2-pyridin-2-yl-ethyl)-ureido]-biphenyl-4-yl}-2-oxo-oxazolidin-5-(S)-ylmethyl)-acetamide]

MIC (S. aureus): 1 µg/mL (≈ 2.09 µM)
Structure (SMILES): CC(=O)NC[C@H]1CN(c2ccc(-c3ccc(NC(=O)NCc4ccncc4)cc3)c(F)c2)C(=O)O1 [Compound 6004, N-{3-[2-Fluoro-4′-(3-pyridin-4-ylmethyl-ureido)-biphenyl-4-yl]-2-oxo-oxazolidin-5-(S)-ylmethyl}-acetamide]

MIC (S. aureus): 1 µg/mL (≈ 2.09 µM)
Structure (SMILES): CC(=O)NC[C@H]1CN(c2ccc(-c3ccc(NC(=O)NCc4ccccn4)cc3)c(F)c2)C(=O)O1 [Compound 6005, N-{3-[2-Fluoro-4′-(3-pyridin-2-ylmethyl-ureido)-biphenyl-4-yl]-2-oxo-oxazolidin-5-(S)-ylmethyl}-acetamide]

MIC (S. aureus): 128 µg/mL (≈ 276 µM)
Structure (SMILES): CC(=O)NC[C@H]1CN(c2ccc(-c3ccc(NC(=O)Nc4ccncc4)cc3)c(F)c2)C(=O)O1 [Compound 6006, N-{3-[2-Fluoro-4′-(3-pyridin-4-yl-ureido)-biphenyl-4-yl]-2-oxo-oxazolidin-5-(S)-ylmethyl}-acetamide]

Structure (SMILES): CC(=O)NC[C@H]1CN(c2ccc(-c3ccc(CNCc4cnn[nH]4)cc3)c(F)c2)C(=O)O1 [Esylate, Radezolid Esylate Salt]
Solubility at Native pH [1]: 53.8 mg/mL
Solubility at Adjusted pH [1]: 61.7 mg/mL
Native pH [1]: 4.0
DVS desorption: weight loss from 95 to 5% RH [2]: Desorption: 2.999% weight loss
DVS sorption: weight gain from 5 to 95% RH [2]: 2.930% weight gain from 5 to
DVS sorption: weight loss upon equilibration at 5% RH [2]: Sorption: 0.22% weight loss

Structure (SMILES): CC(=O)NC[C@H]1CN(c2ccc(-c3ccc(CNCc4cnn[nH]4)cc3)c(F)c2)C(=O)O1 [Ethane-1,2-disulfonate, Radezolid Ethanedisulfonate Salt]
Solubility at Native pH [1]: >133.2 mg/mL
Solubility at Adjusted pH [1]: >116.9 mg/mL
Native pH [1]: 2.0
DVS desorption: weight loss from 95 to 5% RH [2]: Desorption: 2.388% weight loss
DVS sorption: weight gain from 5 to 95% RH [2]: 2.355% weight gain from 5 to
DVS sorption: weight loss upon equilibration at 5% RH [2]: Sorption: 0.017% weight loss

Structure (SMILES): CC(=O)NC[C@H]1CN(c2ccc(-c3ccc(CNCc4cnn[nH]4)cc3)c(F)c2)C(=O)O1 [Mesylate, Radezolid Mesylate Salt]
Solubility at Adjusted pH ([1]; Mesylate Salt): 18.0 mg/mL
Solubility at Native pH ([1]; Mesylate Salt): 18.6 mg/mL
Native pH ([1]; Mesylate Salt): 4.1
DVS desorption: weight loss from 95 to 5% RH ([2]; Mesylate Salt): Desorption: 0.835% weight loss
DVS sorption: weight gain from 5 to 95% RH ([2]; Mesylate Salt): 1.025% weight gain from 5 to
DVS sorption: weight loss upon equilibration at 5% RH ([2]; Mesylate Salt): Sorption: 0.114% weight loss

Structure (SMILES): CC(=O)NC[C@H]1CN(c2ccc(-c3ccc(CNCc4cnn[nH]4)cc3)c(F)c2)C(=O)O1 [Sulfate, Radezolid Sulfate Salt]
Solubility at Adjusted pH ([1]; Sulfate Salt): 3.3 mg/mL
Solubility at Native pH ([1]; Sulfate Salt): 4.0 mg/mL
Native pH ([1]; Sulfate Salt): 1.9
DVS desorption: weight loss from 95 to 5% RH ([2]; Sulfate Salt): Desorption: 11.504% weight loss
DVS sorption: weight gain from 5 to 95% RH ([2]; Sulfate Salt): 11.527% weight gain from 5 to
DVS sorption: weight loss upon equilibration at 5% RH ([2]; Sulfate Salt): Sorption: 0.654% weight loss
